Reference: article PMC10779086, “3-O-Methyltolcapone and Its Lipophilic Analogues Are Potent Inhibitors of Transthyretin Amyloidogenesis with High Permeability and Low Toxicity” (International Journal of Molecular Sciences, 2023)
Where “and” joins values, the source holds several entries; their conditions need not be identical. Equal values may be shown once. Read-outs that look alike come from different tables or passages of the source.

Assays:
Caco-2 cells [1] = conditions: expected value in brackets, cited from earlier work
[2] = Caco-2 intestinal permeability; format: in vitro ADME, human; conditions: human; for Papp A→B at 60 min, 10 μM / Papp B→A at 60 min, 10 μM: Caco-2, pH 7.4; for recovery at 60 min: Caco-2, pH 7.4, with Elacridar 2 µM
Experimental: (§1) Caco-2 cells (cod. HTB-37) were bought from ATCC (American Type Culture Collection, Rockville, MD, USA). Caco-2 cells were cultured for 21 days on a 24 trans-well plate to reach the right confluence and differentiate until the formation of the intestinal epithelium mimetic monolayer. The test substance permeability was measured in both directions (apical to basolateral [A→B] and basolateral to apical [B→A]) across the cell monolayer. The assay was carried out in HBSS transport medium at pH 7.4. Test substance at single concentration (10 μM) was tested in duplicate at one time point (60 min). Monolayer integrity of Caco-2 cells was evaluated by TEER measurements during the experiment and by Lucifer Yellow test after the incubation with the test compound. The concentrations of the test substance and/or reference controls were measured by LC-MS/MS.
(§2) When the inhibitor leads the efflux ratio to a significant reduction (>50%) or to unity, the test compound is classified as a probable substrate of that efflux transporter. As control, the modulation of the efflux ratio of a reference known substrate (Digoxin) was evaluated with or without the respectively inhibitors in every experiment. […] In parallel, mass balance (%) of recovered test substance was also determined. […] Outside these ranges the permeability data is not reliable.

[3] = cited from earlier work
[4] = system: SH-SY5Y neuroblastoma human cell line; assay: Cytotoxicity in SH-SY5Y cells (ATP viability assay); format: cell-based; conditions: 48 h
Experimental: The neuroblastoma cell line SHSY-5Y (ATCC CRL2266) was cultured in EMEM ATCC medium supplemented with 10% FBS (Euroclone CAT No. ECS0180D), 100 units/mL penicillin, and 100 ug/mL streptomycin sulphate (Euroclone CAT No. ECB3001). Cells were grown at 37 °C in an atmosphere of 5% CO2 and plated at 10,000 cells/well in a 96-well plate (Corning Cat. N. 3610). The compounds were dissolved at a concentration of 10 mM in DMSO. Cells were stimulated for 48 h at 37 °C with serial dilutions of the compounds at the following concentrations: 0.1, 1, 10, 50, 100, and 200 μM and dispensed with an HP Dispenser (Tecan), as triplicates for each concentration. DMSO normalisation at 1.5% was performed in each well.
(§3) Cell viability was evaluated by measuring ATP levels using CellTiter Glo (Promega Cat.n. G7570) according to manufacturer’s instructions.

[5] = Chromatographic Hydrophobicity Index (CHI); format: physicochemical
From the text: The assay is a chromatographic fast gradient reversed-phase method which allows to characterize the lipophilicity of compounds in high throughput screening regime at three different pH values (2.0; 7.4; 10.5). The so defined CHI is obtained from the gradient (buffer/Acetonitrile) retention time after calibrating the chromatographic system with a test mixture of ten known standard compounds. For most compounds, CHI is between 0 and 100 and it approximates the percentage (by volume) of acetonitrile required to achieve an equal distribution of compound between the mobile and the lipophilic stationary phase of a C18 chromatographic column. Compounds that are not retained on the column are assigned to a CHI value < 0, which means very low lipophilicity. For highly lipophilic compounds, which are strongly retained by the column, a CHI value of >100 is assigned. For any value in between, the actual CHI value is calculated based on the calibration line of the reference compounds [49].

[6] = system: HepG2 human liver cancer cell line; assay: Cytotoxicity in HepG2 cells (ATP viability assay); format: cell-based; conditions: 48 h
Experimental: Compounds were dissolved at the concentration of 50 mM in DMSO.
DMSO normalisation at 1.0% was performed in each well.
as §3

[7] = Kinetic solubility in PBS; format: physicochemical; conditions: Phosphate Buffered Saline (PBS), aqueous buffer, kinetic from dmso stock, PBS pH 7.4, 1% DMSO
Experimental: (§4) The assay combines solubility and a non-cell-based Blood Brain Barrier permeability assay (Parallel Artificial Membrane Permeation Assay; PAMPA-BBB) into a single workflow in which a portion of the filtrate from the Solubility filter plate is added to the donor compartment of the MultiScreen filter plate for the PAMPA-BBB analysis. […] Solutions were filtered into a 96-well collection plate using vacuum filtration and then analysed by UV/Vis spectroscopy. The relative solubility was then calculated using the sum of the recorded values as compared to a standard calibration curve. […] PAMPA-BBB determination was carried out in a 96-well MultiScreen Permeability plate and the ability of a compound to diffuse from a Donor to an Acceptor compartment separated by a Porcine Brain Lipid Extract (PBLE) dissolved in dodecane (20 mg/mL) layer on a PVDF membrane support was measured. The assay was performed in duplicate in PBS at pH 7.4 and the analysis is carried out by UV/Vis spectroscopy.

[8] = Blood-brain barrier permeability (PAMPA-BBB); format: in vitro ADME
Experimental: as §4
The compounds are classified into 2 types: CNS+ compounds that can cross the BBB and CNS- compounds that cannot according to the Pe values (BBB−, Pe < 2 × 10^−6 cm/s; BBB +/−, 2 × 10^−6 cm/s < Pe < 4 × 10^−6 cm/s; BBB+, Pe > 4 × 10^−6 cm/s).
Membrane retention is also evaluated according to Equation (1), (1) 1−Rm=CAccVAcc+CDonorVDonor/Sol×VDonor where Rm is the membrane retention factor. 1 − Rm between 1.2 and 0.8 is considered fully acceptable for the reliability of the results.

TTR [9] = biological target: TTR (Homo sapiens, UniProt P02766); assay: Isothermal titration calorimetry (ITC), one-binding-site model; design: made in house; host or cells: E. coli BL21; conditions: single-binding-site model, 25 °C
Experimental: At an absorbance value of 600 nm around 0.3, the temperature was shifted to 30 °C.
Data were fitted using the “one-binding-site model” of the Malvern version of ORIGIN v.7. The heat of binding (ΔH), the stoichiometry (n), entropy (ΔS) and the dissociation constant (Kd) were then calculated from plots of the heat evolved per mole of ligand injected versus the molar ratio of ligand to protein using the software provided by the vendor (Table 3). Sample preparation is detailed below. […] A 10 µM protein stock in 2× buffer was then prepared and diluted 1:1 with a 10% DMSO solution, to obtain a 5 µM TTR solution in 1× buffer A and 5% DMSO. Different protein concentrations (3–5 µM) assayed in the replicates were prepared accordingly, starting from a 2× protein solution in 2× buffer A. Each ligand was dissolved in 100% DMSO and a 2 mM stock solution in 100% DMSO was prepared. A 200 µM compound solution was obtained in 10% DMSO and diluted 1:1 with 2× buffer A, to obtain a 100 µM ligand solution to be used for the ITC assays (in 1× buffer A and 5% DMSO).

TTR [10] = conditions: sequential model, cited from earlier work
Caco-2 cells [11] = assay: Caco-2 intestinal permeability; format: in vitro ADME, human; conditions: reduction of efflux ratio by Elacridar 2 µM
Experimental: as §1, §2

recovery at 60 min, 10 µM ([2]; Caco-2, pH 7.4, A→B)	Papp A→B at 60 min, 10 μM [2]	n (stoichiometry of binding, ligand:TTR tetramer) (TTR [9])	recovery at 60 min, 10 µM ([2]; Caco-2, pH 7.4, B→A)	Papp B→A at 60 min, 10 μM [2]	Compound	Papp [Expected Values] (Caco-2 cells [1]; A→B)	solubility [7]	∆H (TTR [9])	further results
105 ± 5%	> 40 ×10⁻⁶ cm/s	–	–	–	COCCc1ccc(OCC(O)CNC(C)C)cc1 (stereo not shown) [Metoprolol, reference compound]	>400 [>400] nm/s	–	–	–
–	–	–	–	–	Cn1c(=O)c2c(ncn2C)n(C)c1=O [Caffeine, caffeine]	–	–	–	CNS Class [Expected Values] ([3]; expected class in brackets): CNS− [CNS−] (BBB−, Pe < 2 × 10^−6 cm/s); BBB-Pe [Expected Values] ([3]; expected value in brackets): 1.3 10^−6 cm/s
53 ± 1%	10.1 ± 1.2 ×10⁻⁶ cm/s	2.0 ± 0.1	70 ± 4%	20.6 ± 5.8 ×10⁻⁶ cm/s	Cc1ccc(C(=O)c2cc(O)c(O)c([N+](=O)[O-])c2)cc1 [tolcapone]	–	> 500 µM	-11.8 kcal/mol and -11.8 ± 0.5 kcal/mol	EC50 [4]: 29.8 ± 1.1 µM; CHI (pH 2.0) ([5]; pH 2.0): 78.2; CHI (pH 10.5) ([5]; pH 10.5): 49.3; EC50 [6]: 17.5 ± 2.4 µM; 1-Rm (membrane retention) [8]: 0.9; Papp ([8]; PBS pH 7.4, read-out: BBB-Pe): 5.6 ×10⁻⁶ cm/s; CNS Class ([8]; classified by Pe): CNS+ (BBB+, Pe > 4 × 10^−6 cm/s); Kd (TTR [10]; read-out: Kd′ (first binding site)): 0.021 µM; Kd (TTR [10]; read-out: Kd″ (second binding site)): 0.058 µM
–	–	2.4 ± 0.1	–	–	O=C(O)c1ccc2nc(-c3cc(Cl)cc(Cl)c3)oc2c1 [tafamidis, reference compound]	–	–	-3.2 kcal/mol and -3.2 ± 0.3 kcal/mol	–
67 ± 5%	0.2 ± 0.1 ×10⁻⁶ cm/s	–	71 ± 6%	14.1 ± 2.6 ×10⁻⁶ cm/s	C[C@H]1O[C@@H](O[C@H]2[C@@H](O)C[C@H](O[C@H]3[C@@H](O)C[C@H](O[C@H]4CC[C@@]5(C)[C@H](CC[C@@H]6[C@@H]5C[C@@H](O)[C@]5(C)[C@@H](C7=CC(=O)OC7)CC[C@]65O)C4)O[C@@H]3C)O[C@@H]2C)C[C@H](O)[C@@H]1O [Digoxin, reference compound]	2 nm/s	–	–	Papp [Expected Values] (Caco-2 cells [1]; B→A): 139 nm/s; Efflux Ratio (Reduction %) (Caco-2 cells [11]): 96%; recovery at 60 min ([2]; A→B + Elacridar 2 µM): 72 ± 1%; recovery at 60 min ([2]; B→A + Elacridar 2 µM): 75 ± 3%; efflux ratio at 60 min, 10 μM ([2]; Caco-2, pH 7.4, without inhibitor, read-out: Efflux Ratio (Papp BA/Papp AB)): > 10
–	–	–	–	–	Cn1c(=O)c2[nH]cnc2n(C)c1=O [Theophylline, theophylline, reference compound]	–	> 500 µM	–	–
